This is an account of results in patent US20050049294A1, “Methods of using [3.2.0] heterocyclic compounds and analogs thereof” (priority 2003, published 2005).

Read-outs that look alike come from different tables or passages of the source.

The target in series [1] is T1, chymotrypsin-like activity of rabbit muscle 20S proteasomes (Oryctolagus cuniculus, UniProt G1T4Q9).
T1 sequence (G1T4Q9 1-263): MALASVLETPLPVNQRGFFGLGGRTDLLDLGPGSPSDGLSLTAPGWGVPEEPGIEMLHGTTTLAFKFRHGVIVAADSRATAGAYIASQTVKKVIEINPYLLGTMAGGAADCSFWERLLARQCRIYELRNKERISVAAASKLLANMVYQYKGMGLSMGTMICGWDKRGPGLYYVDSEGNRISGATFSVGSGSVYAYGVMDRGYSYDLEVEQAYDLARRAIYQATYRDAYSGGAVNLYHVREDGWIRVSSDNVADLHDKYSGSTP
As to the kind of experiment: Inhibition of chymotrypsin-like activity of purified rabbit muscle 20S proteasome (suc-LLVY-AMC). The format is biochemical.

The test system of series [2] is NF-κB-mediated luciferase activity in HEK293 NF-κB/Luc cells. The experiment in a line: NF-κB-mediated luciferase reporter gene assay. The conditions noted are these: for EC50: Homo sapiens; for luciferase activity upon TNF-α stimulation: pretreatment of NF-κB/Luc 293 cells. The series is classed as cell-based, human. The protocol: The HEK293 NF-κB/luciferase reporter cell line is a derivative of the human embryonic kidney cell line (ATCC; CRL- 1573) and carries a luciferase reporter gene under the regulation of 5×NF-κB binding sites. […] When performing the luciferase assay, the DMEM basal medium was replaced with phenol-red free DMEM basal medium and the G418 was omitted.
For NF-κB-mediated luciferase assays, HEK293 NF-κB/luciferase cells were seeded at 1.5×10^4 cells/well in 90 μl phenol-red free DMEM complete medium into Corning 3917 white opaque-bottom tissue culture plates. […] This dilution series was further diluted 40× in appropriate culture medium and ten μl aliquots were added to the test wells in triplicate resulting in final test concentrations ranging from 1 μM to 320 pM. […] For Formula II-19, a 127 μM starting dilution was made in 100% DMSO and the final test concentrations ranging from 317 nM to 0.1 nM. […] After 1 hr pretreatment, 10 μl of a 50 ng/ml TNF-α solution, prepared in the phenol-red free DMEM medium was added, and the plates were incubated for an additional 6 hr.
NF-κB inducible luciferase activity was measured at 6 hours.
The HEK293 NF-κB/luciferase reporter cell line is a derivative of the human embryonic kidney cell line (ATCC; CRL-1573) and carries a luciferase reporter gene under the regulation of 5×NF-κB binding sites. […] When performing the luciferase assay, the DMEM basal medium was replaced with phenol-red free DMEM basal medium and the G418 was omitted.
For NF-κB-mediated luciferase assays, HEK293 NF-κB/luciferase cells were seeded at 1.5×10^4 cells/well in 90 μl phenol-red free DMEM complete medium into Corning 3917 white opaque-bottom tissue culture plates. For Formula II-2, Formula II-4 and Formula II-5A, a 400 μM starting dilution was made in 100% DMSO and this dilution was used to generate a 8-point half log dilution series. This dilution series was further diluted 40× in appropriate culture medium and ten μl aliquots were added to the test wells in triplicate resulting in final test concentrations ranging from 1 μM to 320 pM. […] After 1 hr pretreatment, 10 μl of a 50 ng/ml TNF-α solution, prepared in the phenol-red free DMEM medium was added, and the plates were incubated for an additional 6 hr.
The relative luciferase units (RLU) were measured by using a Fusion microplate fluorometer (Packard Bioscience).
Background: Reporter assays use an easily measured gene product as a stand-in for the process of interest.

The test system of series [3] is B16-F10 cells. The experiment in a line: Cell growth inhibition (resazurin, 48 hours), B16-F10. The series is classed as cell-based, mouse. For orientation: The colour change of resazurin is a common sign of viable cells or microbes.
For series [4], the system named is HT-29 cells. As to the kind of experiment: Cell growth inhibition (resazurin, 48 hours), HT-29. The series is classed as cell-based. The conditions noted are these: Homo sapiens.
The subject of series [5] is MDA-MB-231 cells. As to the kind of experiment: Cell growth inhibition (resazurin, 48 hours), MDA-MB-231. The format is cell-based. As to conditions: Homo sapiens.
Series [6] relates to NCI-H292 cells. As to the kind of experiment: Cell growth inhibition (resazurin, 48 hours), NCI-H292. The format is cell-based, human.
Series [7] has as its system OVCAR-3 cells. As to the kind of experiment: Cell growth inhibition (resazurin, 48 hours), OVCAR-3. The series is classed as cell-based, human.
Series [8] relates to MES-SA cells. As to the kind of experiment: Cell growth inhibition (resazurin, 48 hours), MES-SA.
Series [9] concerns the target T2, trypsin-like activity of purified rabbit 20S proteasomes (Oryctolagus cuniculus, UniProt G1SWK8).
T2 sequence (G1SWK8 1-271): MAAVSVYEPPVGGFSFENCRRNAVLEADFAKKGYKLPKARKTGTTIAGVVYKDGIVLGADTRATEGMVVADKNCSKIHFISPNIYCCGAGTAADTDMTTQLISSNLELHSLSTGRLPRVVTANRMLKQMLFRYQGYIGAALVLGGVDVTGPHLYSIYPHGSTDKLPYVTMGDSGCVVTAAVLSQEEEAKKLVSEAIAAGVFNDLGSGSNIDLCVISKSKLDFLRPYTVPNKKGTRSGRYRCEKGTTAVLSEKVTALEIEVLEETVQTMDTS
As to conditions: under the conditions tested.

In series [10] the test system is LeTx-induced cytotoxicity of RAW264.7 cells. The experiment in a line: cells. The conditions noted are these: Mus musculus.
Series [11] concerns U266 cells. The experiment in a line: Cell growth inhibition (resazurin, 48 hours), U266.
Where [12] appears, read: Mus musculus, B16-F10, Table 13, B16-F10.
The mark [13] stands for this setting: Homo sapiens, NCI-H292, Table 13, NCI-H292.
[14] abbreviates: Homo sapiens, OVCAR-3, Table 13, OVCAR-3.
Setting [15] is: Homo sapiens, MES-SA, read-out: EC50 (nM) MES-SA, Table 16.
[16] abbreviates: read-out: EC50 (nM) MES-SA, Table 16.
The mark [17] stands for this setting: RAW264.7, read-out: EC50 (nM), inhibition of RAW 264.7 cell cytotoxicity mediated by anthrax lethal toxin.
[18] abbreviates: Homo sapiens, U-266, Table 13, U266.
The mark [19] stands for this setting: Homo sapiens, U-266, read-out: U266 EC50 (nM), Table 15, mean EC50.
The mark [20] stands for this setting: Table 3, mean EC50, purified rabbit 20S proteasomes, read-out: EC50 Values, Chymotrypsin-like.

Turning to `C[C@@]12OC(=O)[C@]1([C@@H](O)C1CCCCC1)NC(=O)[C@@H]2CCCl` [Formula II-2], the EC50 in series [1] (EC50, chymotrypsin-like activity of the proteasome) was 18.5 nM; in [1] (EC50 Values, Chymotrypsin-like), 18 nM; in [2] (HEK293, representative experiment, Example 43 (FIG. 44, 45), read-out: calculated EC50 to inhibit NF-κB inducible luciferase activity) it was 73 nM; in series [3] (setting [12]), 194 nM; in series [4] (HT-29), 129 ± 21 nM; in series [5] (MDA-MB-231), 121 ± 23 nM. Also, the EC50 in series [6] (setting [13]) was determined as 322 nM; in series [7] (setting [14]), 188 nM; in series [7] (Table 13, OVCAR-3) it was 251 nM; in series [8] (setting [15]), 193 nM; in [8] (setting [16]), 155 nM; in [10] (setting [17]), 14 nM. In addition, the EC50 in [11] (setting [18]) came to 32 nM; in series [11] (setting [19]), 36 nM. Besides, in series [2], the “luciferase activity upon TNF-α stimulation” value was “dose-dependent decrease”. Further, in series [9], the “inhibit the trypsin-like activity of the 20S proteasome” value (shortened to “inhibit the trypsin-like activity”) is “able to inhibit”.

Regarding `C[C@@]12OC(=O)[C@]1([C@@H](O)C1CCCCC1)NC(=O)[C@@H]2CCBr` [Formula II-4], the EC50 in [1] (setting [20]) was 14.2 nM; in [1] (representative experiment, Example 44 (FIG. 46, 47), read-out: EC50, chymotrypsin-like activity of the proteasome) it was 15 nM; in series [2] (HEK293, read-out: calculated EC50 to inhibit NF-κB inducible luciferase activity) it was 67 nM; in series [3] (setting [12]), 163 nM; in [3] (Table 13, B16-F10), 175 nM; in series [4] (Table 13, HT-29, read-out: EC50), 132 ± 36 nM. Moreover, the EC50 in series [5] (MDA-MB-231) was 114 ± 4 nM; in [6] (setting [13]) it was 192 nM; in [7] (setting [14]), above 6320 nM; in series [8] (setting [15]), 163 nM; in series [10] (setting [17]), 14 nM; in [11] (setting [18]), 39 nM. For the same compound, the EC50 in [11] (setting [19]) amounted to 36 nM; in series [11] (Table 13, U266) it was 34 nM. For the same compound, the “luciferase activity upon TNF-α stimulation” value in series [2] is listed as “dose-dependent decrease”. Further, in [9], the “inhibit the trypsin-like activity” value is “able to inhibit”.

Take `C[C@@]12OC(=O)[C@]1([C@@H](O)[C@@H]1C=CCCC1)NC(=O)[C@@H]2CCCl` [Formula II-16, Salinosporamide A]: in [1] (20S proteasome assay EC50 values), the “more potent than Omuralide” value is given as “approximately 40 fold”. The EC50 in series [2] (HEK293, 6 h, read-out: calculated EC50 for inhibition of NF-κB/luciferase activity) was around 7 nM; in series [3] (Mus musculus, B16-F10, 48 h), 33 nM; in series [3] (Mus musculus, B16-F10, 48 h, read-out: EC50 (nM), mean ± SD) it was 47 ± 20 nM; in series [4] (HT-29, 48 h) it was 47 nM; in series [4] (HT-29, 48 h, read-out: EC50 (nM), mean ± SD), 40 ± 26 nM; in [5] (MDA-MB-231, 48 h), 67 nM. The EC50 in series [5] (MDA-MB-231, 48 h, read-out: EC50 (nM), mean ± SD) was found to be 87 ± 40 nM; in series [6] (Homo sapiens, NCI-H292, 48 h), 97 nM; in series [6] (Homo sapiens, NCI-H292, 48 h, read-out: EC50 (nM), mean ± SD), 66 ± 29 nM; in [7] (Homo sapiens, OVCAR-3, 48 h), 69 nM; in series [7] (Homo sapiens, OVCAR-3, 48 h, read-out: EC50 (nM), mean ± SD) it was 49 ± 31 nM; in series [8] (Homo sapiens, MES-SA, read-out: EC50 (nM), mean), 20 ± 5 nM. Further, the EC50 was below 4 nM in series [10] (RAW264.7, read-out: average EC50, viability of LeTx-treated cells); 4.7 ± 0.7 nM in [11] (Homo sapiens, U-266, 48 h, read-out: EC50 (nM), mean ± SD); 4.1 nM in series [11] (Homo sapiens, U-266, read-out: U266 EC50 (nM)). The “luciferase activity upon TNF-α stimulation” value in series [2] is given as “dose-dependent decrease”. In [8] (Table 7, MES-SA), the “% cytotoxicity, mean ± SD” value is 94 ± 1%. For the same compound, the “inhibit the trypsin-like activity” value in series [9] is reported as “able to inhibit”.

With `C[C@@]12OC(=O)[C@]1([C@@H](O)[C@@H]1C=CCCC1)NC(=O)[C@@H]2CCBr` [Formula II-18], the EC50 in series [1] (setting [20]) was determined as 2.2 nM; in [3] (setting [12]), 19 nM; in series [3] (Table 13, B16-F10) it was 36 nM; in [4] (HT-29), 18 ± 7.8 nM; in [5] (MDA-MB-231), 16 ± 2.8 nM; in [6] (setting [13]) it was 29 nM. Further, the EC50 in series [6] (Table 13, NCI-H292) was 41 nM; in series [7] (setting [14]), above 2000 nM; in series [8] (setting [15]), 22 nM; in series [8] (setting [16]) it was 17 nM; in series [10] (setting [17]), 4 nM; in series [11] (setting [18]), 4.2 nM. For the same compound, the EC50 in series [11] (setting [19]) came to 4.2 nM. The “luciferase activity upon TNF-α stimulation” value in series [2] is reported as “dose-dependent decrease”. The “inhibit the trypsin-like activity” value in series [9] is “able to inhibit”.
